Experimental data published in US20230134935A1, “MEDICAL USE OF DARIDOREXANT” (Idorsia Pharmaceuticals Ltd, priority 2020, published 2023).
Entries after “also recorded” stand apart in the source; their conditions may differ.

Experiments:
rat = settings: cited from earlier work
[1] = test system: adult and elderly subjects with insomnia disorder; experiment: Phase 3 double-blind placebo-controlled polysomnography study, Example B (NCT03575104), 10 mg and 25 mg; type: in vivo, human
Experimental: (§1) Daridorexant entered two phase 3 multi-center, double-blind, randomized, placebo-controlled, parallel-group, polysomnography study to assess the efficacy and safety of ACT-541468 in adult and elderly subjects with insomnia disorder. (NCT03545191, EudraCT Number: 2017-004642-20 testing strengths of 25 mg and 50 mg; and NCT03575104, EudraCT Number: 2017-004643-20 testing strengths of 10 mg and 25 mg). To assess daytime functioning, said phase 3 studies investigate as a secondary endpoint the IDSIQ sleepiness domain score, using as a dedicated patient reported outcome (PRO) instrument the Insomnia Daytime Symptoms and Impacts Questionnaire (IDSIQ) (S. Hudgens et al., The Patient—Patient-Centered Outcomes Research (2021) 14:249-268). The instrument is based on the Daytime Insomnia Symptom Scale (DISS) (Buysse et al., Sleep Medicine 8 (2007) 198-208; Buysse et al., SLEEP 29(9) (2006) 1155-1173) and designed to characterize and compare daytime symptoms in insomnia. The IDSIQ is structured in three domains (alertness/cognition; (negative) mood; tiredness/sleepiness) and contains overall 14 items, each based on an 11-point numeric rating scale. For each domain score the total rating score of all associated items is considered.
Example B): Multi-Center, Double-Blind, Randomized, Placebo-Controlled, Parallelgroup, Polysomnography Study to Assess the Efficacy and Safety of ACT-541468 in Adult and Elderly Subjects with Insomnia Disorder
The study (NCT03575104) is conducted in analogy to the study of Example A), using daridorexant strengths of 10 mg and 25 mg.

[2] = test system: adult and elderly subjects with insomnia disorder; experiment: Phase 3 double-blind placebo-controlled polysomnography study, Example A (NCT03545191), 25 mg and 50 mg; type: in vivo, human; settings: for IDSIQ sleepiness domain score: month 1 and month 3
Experimental: as §1
Example A): Multi-Center, Double-Blind, Randomized, Placebo-Controlled, Parallelgroup, Polysomnography Study to Assess the Efficacy and Safety of ACT-541468 in Adult and Elderly Subjects with Insomnia Disorder
The study comprises the following 3 phases: the screening phase, the treatment phase, and the safety follow-up phase. The screening phase starts with the signature of the informed consent form at Visit 1 and ends at Randomization (Visit 4), provided the subject fulfills all the eligibility criteria. It includes the Screening period and the Run-in period. The screening phase lasts […]. The Screening period starts with Visit 1 and ends at Visit 2. During the Screening period, the investigator verifies eligibility criteria and eligible subjects perform a one-night polysomnography (PSG) assessment. The Screening period lasts 7 to 18 days to allow time to perform all required procedures at Visit 1, the PSG assessment and collect the minimum number of eDiary entries (i.e., 7 days) between Visit 1 and Visit 2. The Run-in period starts with Visit 2 and ends at Randomization (i.e., Visit 4). At Visit 2 eligible subjects are allocated a single-blinded placebo treatment that is taken daily. During the Run-in period subjects come to the site for Visit 3, which consists of 2 PSG nights and is performed when the subject has completed the eDiary for at least 7 days and eligibility is confirmed. The Run-in period lasts 13 to 24 days, to allow collection of the minimum number of eDiary entries (i.e., 7 days), perform 2 PSG nights at Visit 3, and receive the eligibility confirmation from the PSG central reader. The double-blind (DB) treatment phase lasts 3 months. It starts at Randomization (Visit 4). DB study treatment is taken daily. A safety telephone call is performed at Visit 5 to collect information about adverse events (AEs) and concomitant medications. Sleep parameters of each subject are objectively assessed with 2 consecutive PSG nights at Visit 6 and Visit 8. A safety visit without PSG night is performed at Visit 7. An eDiary is completed every day during the treatment phase. End-of-Double-Blind-Treatment (EODBT) is reached in the second morning of Visit 8. The safety follow-up phase starts after EODBT. It consists of a single-blind placebo run-out period of 7 days and a safety follow-up period. The Run-out period starts in the evening of Visit 9. Visit 9 consists of one PSG night on single-blind placebo treatment. Visit 9 is followed by 6 days at home with single-blind placebo treatment. The eDiary is completed every day during the Run-out period. The end of the Run-out period (End-of-Treatment [EOT]) is reached after all visit assessments have been performed at Visit 10. […]

[3] = test system: subjects with insomnia disorder; settings: cited from earlier work; for visual analog scales (VASs) on morning sleepiness, daytime alertness, and daytime ability to function: compared with placebo at week 2, higher doses, not sustained at week 4
[4] = test system: animal model of agitation; settings: in vivo; cited from earlier work
[5] = in vivo; cited from earlier work
[6] = 10 mg, month 1 and month 3, vs placebo
[7] = 25 mg, month 1 and month 3, vs placebo
[8] = 25 mg and 50 mg once daily in the evening, Month 1 and Month 3, vs placebo
[9] = both doses (25 mg, 50 mg), all timepoints, vs placebo

SMILES: COc1ccc(-n2nccn2)c(C(=O)N2CCC[C@@]2(C)c2nc3c(C)c(Cl)ccc3[nH]2)c1 [daridorexant, [(S)-2-(5-Chloro-4-methyl-1H-benzoimidazol-2-yl)-2-methyl-pyrrolidin-1-yl]-(5-methoxy-2-[1,2,3]triazol-2-yl-phenyl)-methanone]
- crossing of the blood-brain barrier (rat): cross the blood-brain barrier
- sleep promotion (effects on active wake, home cage activity, NREM sleep, REM sleep) (rat): promote sleep
- WASO [1, 6]: not
- sTST [1, 6]: not
- IDSIQ sleepiness domain ([1]; 25 mg, both time points): numerical trend
- LPS after log-transformation ([1]; 25 mg, month 1 and month 3): significantly reduced; also recorded: significant after log-transformation
- WASO [1, 7]: significantly decreased
- sTST [1, 7]: increased
- decrease in LPS ([1]; 25 mg, vs placebo, without log-transformation): did not reach statistical significance
- change from baseline in LPS (latency to persistent sleep, sleep onset) [2, 8]: significant reductions
- change from baseline in WASO (wake time after sleep onset, sleep maintenance) [2, 8]: significant reductions
- change from baseline in subjective total sleep time (sTST) [2, 8]: increased the subjective total sleep time (sTST) significantly
- incidence of somnolence ([2]; 25 mg and 50 mg vs placebo): low (lower with daridorexant 50 mg versus placebo) and not dose dependent
- IDSIQ sleepiness domain score ([2]; 25 mg, vs placebo): numerical trend; also recorded: numerical improvement
- falls ([2]; 50 mg dose group compared to placebo): Fewer falls
- IDSIQ sleepiness domain score ([2]; 50 mg, vs placebo): significantly improved
- daytime functioning over time ([2]; 3 months of treatment): gradual improvement
- improvements in sleep (WASO, LPS, sTST) over time ([2]; 3 months of treatment): maintained over 3 months; also recorded: maintained over three months
- tolerability / safety profile ([2]; adult and elderly patients): well tolerated
- IDSIQ alert/cognition domain score [2, 9]: decreased; also recorded: improved
- IDSIQ mood domain score [2, 9]: decreased; also recorded: improved
- IDSIQ total score [2, 9]: decreased; also recorded: improved
- rate of adverse events ([2]; both treatment doses vs placebo): comparable between placebo and daridorexant
- next-morning sleepiness effect assessed by visual analog scale (VAS) ([2]; every morning): no next-morning sleepiness effect
- most frequent treatment-emergent adverse events (TEAEs) ([2]; in vivo): nasophyringitis and headache
- suicide, suicidal ideation, or self-injury ([2]; in vivo): no suicide, suicidal ideation, or self-injury
- number of serious adverse events ([2]; placebo group compared to daridorexant treatment groups): higher in the placebo group
- rebound insomnia or withdrawal symptoms upon discontinuation ([2]; upon discontinuation): no rebound insomnia, or withdrawal symptoms
- morning sleepiness (sleepiness the following day) ([3]; any dose vs placebo): no difference
- visual analog scales (VASs) on morning sleepiness, daytime alertness, and daytime ability to function [3]: nonsignificant increases
- wake time after sleep onset ([3]; phase 2, subjects with insomnia disorder): dose-dependent reduction
- next-morning residual drug effects ([3]; up to and including the highest dose (50 mg)): absence of such effects
- activity in animal model of agitation [4]: active

SMILES: Cc1ccc(-n2nccn2)c(C(=O)N2CCN(c3nc4cc(Cl)ccc4o3)CC[C@H]2C)c1 [suvorexant]
- halflife (t½) [5]: 12 h

SMILES: Cc1ccc(-c2nc3ccc(C)cn3c2CC(=O)N(C)C)cc1 [zolpidem, reference compound]
- visual analog scales (VASs) on morning sleepiness, daytime alertness, and daytime ability to function [3]: pattern was also true
